According to patent US20250195521A1 (Revolution Medicines, Inc., priority 2020, published 2025):

What was measured:
[1] = biological target: K-Ras G12C(GMP-PNP) binding to BRAF RBD (Homo sapiens (Human), UniProt P01116+P62937, G12C); assay: Disruption of BRAF RBD interaction with K-Ras (FRET / MOA assay), K-Ras G12C; type: biochemical; conditions: read-out: KRAS G12C FRET IC50
How it was run: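 TR-FRET readout: after 3 h compound incubation at 25 °C, anti-His Eu and anti-GST allophycocyanin (10 and 50 nM final) added for a further 1.5 h. Dilution series was 10-point, 3-fold, top 30 μM final. Ras–cyclophilin A ternary complex formation blocks the BRAF RBD interaction; IC50 derived from reduced FRET ratio relative to DMSO.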

[2] = biological target: KRAS G12S binding to BRAF RBD (Homo sapiens (Human), UniProt P01116+P62937, G12S); assay: Ras-Raf disruption/FRET/MOA assay, KRAS G12S; type: biochemical
KRAS G12S binding to BRAF RBD, sequence (P01116 other isoform, or with tags, fused parts or gaps G12S): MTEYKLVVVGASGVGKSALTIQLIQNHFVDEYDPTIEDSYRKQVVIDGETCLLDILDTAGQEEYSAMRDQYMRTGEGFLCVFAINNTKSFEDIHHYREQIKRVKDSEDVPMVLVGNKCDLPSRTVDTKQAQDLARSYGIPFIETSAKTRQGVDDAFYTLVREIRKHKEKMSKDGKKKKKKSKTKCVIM
KRAS G12S binding to BRAF RBD, sequence (P62937 whole entry): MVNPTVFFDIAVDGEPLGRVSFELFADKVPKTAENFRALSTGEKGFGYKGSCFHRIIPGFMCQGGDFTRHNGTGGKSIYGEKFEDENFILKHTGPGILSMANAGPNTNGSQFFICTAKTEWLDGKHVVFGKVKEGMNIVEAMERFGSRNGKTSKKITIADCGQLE
From the text: (§1) Note—The following protocol describes a procedure for monitoring disruption of K-Ras G12C(GMP-PNP) binding to BRAF^RBD by a compound of the invention. This protocol may also be executed substituting other Ras proteins or nucleotides.
(§2) The purpose of this biochemical assay was to measure the ability of test compounds to facilitate ternary complex formation between a nucleotide-loaded K-Ras isoform and Cyclophilin A; the resulting ternary complex disrupts binding to a BRAF^RBD construct, inhibiting K-Ras signaling through a RAF effector. Data is reported as IC50 values.
(§3) Compound was present in plate wells as a 10-point 3-fold dilution series starting at a final concentration of 30 μM. After incubation at 25° C. for 3 hours, a mixture of Anti-His Eu—W1024 and anti-GST allophycocyanin was then added to assay sample wells at final concentrations of 10 nM and 50 nM, respectively, and the reaction incubated for an additional 1.5 hours. […] Compounds that facilitate disruption of a K-Ras: RAF complex were identified as those eliciting a decrease in the TR-FRET ratio relative to DMSO control wells.

[3] = biological target: KRAS G12V binding to BRAF RBD (Homo sapiens (Human), UniProt P01116+P62937, G12V); assay: Ras-Raf disruption/FRET/MOA assay, KRAS G12V; type: biochemical; conditions: read-out: KRAS G12V FRET IC50
KRAS G12V binding to BRAF RBD, sequence (P01116 other isoform, or with tags, fused parts or gaps G12V): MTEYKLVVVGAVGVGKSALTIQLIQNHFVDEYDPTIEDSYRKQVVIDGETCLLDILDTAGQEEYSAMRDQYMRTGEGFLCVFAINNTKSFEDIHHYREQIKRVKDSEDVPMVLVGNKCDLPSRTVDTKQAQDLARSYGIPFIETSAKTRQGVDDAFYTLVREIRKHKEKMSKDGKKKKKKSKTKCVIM
KRAS G12V binding to BRAF RBD, sequence (P62937 whole entry): as the sequence (P62937 whole entry) above
From the text: as §1, §2, §3

[4] = system: K-Ras G12C (NCI-H358 cells); assay: Potency assay: pERK in NCI-H358 cells; type: cell-based, human; conditions: Homo sapiens; NCI-H358 cells, 4 hours; read-out: pERK EC50 (H358 KRAS G12C)
How it was run: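 Cells plated the day before were exposed for 4 h at 37° C, 5% CO2 to a 10-point, 3-fold DMSO dilution series (10 mM top stock), in duplicate. Phospho-ERK was read by AlphaLISA SureFire Ultra or by In-Cell Western with DRAQ5 DNA stain, and IC50 came from a 4-parameter sigmoidal fit.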

NCI-H358 (K-Ras G12C) = assay: CellTiter-Glo cell viability assay, NCI-H358; type: cell-based, human; conditions: Homo sapiens, NCI-H358, 120 h, 5-day treatment; read-out: H358 Cell Viability assay data (K-Ras G12C, IC50)
How it was run: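 Five-day compound treatment of NCI-H358 cells, then CellTiter-Glo luminescence, percent of DMSO, four-parameter logistic fit.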

[5] = biological target: KRAS G13D binding to BRAF RBD (Homo sapiens (Human), UniProt P01116+P62937, G13D); assay: Ras-Raf disruption/FRET/MOA assay, KRAS G13D; type: biochemical
KRAS G13D binding to BRAF RBD, sequence (P01116 other isoform, or with tags, fused parts or gaps G13D): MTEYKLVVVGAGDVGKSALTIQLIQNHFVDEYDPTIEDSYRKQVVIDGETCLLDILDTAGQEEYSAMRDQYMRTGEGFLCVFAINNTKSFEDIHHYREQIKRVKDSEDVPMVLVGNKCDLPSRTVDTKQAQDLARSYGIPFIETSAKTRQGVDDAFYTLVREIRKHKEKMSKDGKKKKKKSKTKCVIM
KRAS G13D binding to BRAF RBD, sequence (P62937 whole entry): as the sequence (P62937 whole entry) above
How it was run: (§4)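 TR-FRET ratio drop relative to DMSO wells marks disruption of the Ras–RAF complex, reported as IC50. Compounds promote a Ras(nucleotide)–cyclophilin A ternary complex that blocks BRAF RBD binding; dosing was 10 points, 3-fold, top 30 μM final, 3 h at 25° C before detection.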

[6] = biological target: NRAS G12C binding to BRAF RBD (Homo sapiens (Human), UniProt P01111+P62937, G12C); assay: Ras-Raf disruption/FRET/MOA assay, NRAS G12C; type: biochemical
NRAS G12C binding to BRAF RBD, sequence (P01111 whole entry G12C): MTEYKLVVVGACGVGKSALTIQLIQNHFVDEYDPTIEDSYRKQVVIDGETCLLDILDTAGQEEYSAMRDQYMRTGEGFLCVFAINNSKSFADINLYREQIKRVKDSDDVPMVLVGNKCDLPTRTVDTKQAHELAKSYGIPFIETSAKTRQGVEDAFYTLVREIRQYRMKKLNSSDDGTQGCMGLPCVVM
NRAS G12C binding to BRAF RBD, sequence (P62937 whole entry): as the sequence (P62937 whole entry) above
How it was run: as §4

[7] = system: NCI-H358 cells (K-Ras G12C); assay: CellTiter-Glo cell viability, NCI-H358; type: cell-based, human; conditions: Homo sapiens, NCI-H358, 120 h, K-Ras G12C, 5-day treatment; read-out: H358 Cell Viability IC50
How it was run: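 Five-day treatment of K-Ras mutant cells with directly dispensed compound; ATP-based luminescence endpoint. Percent of DMSO signal fit to four-parameter logistic curve.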

[8] = biological target: KRAS WT binding to BRAF RBD (Homo sapiens (Human), UniProt P01116+P62937); assay: Ras-Raf disruption/FRET/MOA assay, KRAS WT; type: biochemical
KRAS WT binding to BRAF RBD, sequence (P01116 other isoform, or with tags, fused parts or gaps): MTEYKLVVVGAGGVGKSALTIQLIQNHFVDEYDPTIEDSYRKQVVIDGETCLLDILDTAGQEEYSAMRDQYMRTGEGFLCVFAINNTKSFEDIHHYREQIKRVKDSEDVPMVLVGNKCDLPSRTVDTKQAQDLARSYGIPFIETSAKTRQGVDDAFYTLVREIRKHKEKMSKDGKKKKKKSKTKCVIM
KRAS WT binding to BRAF RBD, sequence (P62937 whole entry, the tested form may be a part): as the sequence (P62937 whole entry) above
From the text: (§5) Disruption of B-Raf Ras-binding Domain (BRAF^RBD) Interaction with K-Ras by Compounds of the Invention (also called a FRET assay or an MOA assay)
as §1, §2
as §3, with “In assay buffer containing 25 mM HEPES pH 7.3, 0.002% Tween20, 0.1% BSA, 100 mM NaCl and 5 mM MgCl2, tagless Cyclophilin A, His6-K-Ras-GMPPNP, and GST-BRAF^RBD were combined in a 384-well assay plate at final concentrations of 25 μM, 12.5 nM and 50 nM, respectively. Compound was” for “Compound was”

[9] = biological target: KRAS Q61H binding to BRAF RBD (Homo sapiens (Human), UniProt P01116+P62937, Q61H); assay: Ras-Raf disruption/FRET/MOA assay, KRAS Q61H; type: biochemical
KRAS Q61H binding to BRAF RBD, sequence (P01116 other isoform, or with tags, fused parts or gaps Q61H): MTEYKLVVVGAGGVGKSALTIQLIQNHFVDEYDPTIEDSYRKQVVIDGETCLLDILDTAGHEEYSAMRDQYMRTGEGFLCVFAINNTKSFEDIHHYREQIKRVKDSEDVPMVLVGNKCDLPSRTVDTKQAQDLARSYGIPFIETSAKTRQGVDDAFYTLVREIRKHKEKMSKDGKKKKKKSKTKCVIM
KRAS Q61H binding to BRAF RBD, sequence (P62937 whole entry): as the sequence (P62937 whole entry) above
From the text: as §5, §1, §2
as §3, with “In assay buffer containing 25 mM HEPES pH 7.3, 0.002% Tween20, 0.1% BSA, 100 mM NaCl and 5 mM MgCl2, tagless Cyclophilin A, His6-K-Ras-GMPPNP, and GST-BRAF^RBD were combined in a 384-well assay plate at final concentrations of 25 μM, 12.5 nM and 50 nM, respectively. Compound was” for “Compound was”

[10] = biological target: NRAS Q61R binding to BRAF RBD (Homo sapiens (Human), UniProt P01111+P62937, Q61R); assay: Ras-Raf disruption/FRET/MOA assay, NRAS Q61R; type: biochemical
NRAS Q61R binding to BRAF RBD, sequence (P01111 whole entry Q61R): as the sequence (P01111 whole entry G12C) above, with C12G, Q61R counted along it
NRAS Q61R binding to BRAF RBD, sequence (P62937 whole entry): as the sequence (P62937 whole entry) above
From the text: as §5, §1, §2
as §3, with “In assay buffer containing 25 mM HEPES pH 7.3, 0.002% Tween20, 0.1% BSA, 100 mM NaCl and 5 mM MgCl2, tagless Cyclophilin A, His6-K-Ras-GMPPNP, and GST-BRAF^RBD were combined in a 384-well assay plate at final concentrations of 25 μM, 12.5 nM and 50 nM, respectively. Compound was” for “Compound was”

[11] = biological target: NRAS Q61K binding to BRAF RBD (Homo sapiens (Human), UniProt P01111+P62937, Q61K); assay: Ras-Raf disruption/FRET/MOA assay, NRAS Q61K; type: biochemical
NRAS Q61K binding to BRAF RBD, sequence (P01111 whole entry Q61K): as the sequence (P01111 whole entry G12C) above, with C12G, Q61K counted along it
NRAS Q61K binding to BRAF RBD, sequence (P62937 whole entry): as the sequence (P62937 whole entry) above
From the text: as §5, §1, §2
as §3, with “In assay buffer containing 25 mM HEPES pH 7.3, 0.002% Tween20, 0.1% BSA, 100 mM NaCl and 5 mM MgCl2, tagless Cyclophilin A, His6-K-Ras-GMPPNP, and GST-BRAF^RBD were combined in a 384-well assay plate at final concentrations of 25 μM, 12.5 nM and 50 nM, respectively. Compound was” for “Compound was”

[12] = biological target: NRAS WT binding to BRAF RBD (Homo sapiens (Human), UniProt P01111+P62937); assay: Ras-Raf disruption/FRET/MOA assay, NRAS WT; type: biochemical
NRAS WT binding to BRAF RBD, sequence (P01111 whole entry): as the sequence (P01111 whole entry G12C) above, with C12G counted along it
NRAS WT binding to BRAF RBD, sequence (P62937 whole entry): as the sequence (P62937 whole entry) above
From the text: as §5, §1, §2
as §3, with “In assay buffer containing 25 mM HEPES pH 7.3, 0.002% Tween20, 0.1% BSA, 100 mM NaCl and 5 mM MgCl2, tagless Cyclophilin A, His6-K-Ras-GMPPNP, and GST-BRAF^RBD were combined in a 384-well assay plate at final concentrations of 25 μM, 12.5 nM and 50 nM, respectively. Compound was” for “Compound was”

K-Ras G12C(GMP-PNP) binding to BRAF RBD, sequence (P01116 other isoform, or with tags, fused parts or gaps G12C): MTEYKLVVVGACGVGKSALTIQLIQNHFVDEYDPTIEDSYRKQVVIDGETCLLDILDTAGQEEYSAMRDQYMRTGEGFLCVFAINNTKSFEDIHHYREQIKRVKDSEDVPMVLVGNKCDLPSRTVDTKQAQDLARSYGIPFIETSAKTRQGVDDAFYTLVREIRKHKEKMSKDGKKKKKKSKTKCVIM
K-Ras G12C(GMP-PNP) binding to BRAF RBD, sequence (P62937 whole entry): as the sequence (P62937 whole entry) above

SMILES | IC50 [1] [µM] | IC50 [2] [µM] | IC50 [3] [µM] | EC50 [4] [µM] | IC50 (NCI-H358 (K-Ras G12C)) [µM] | IC50 [5] [µM] | IC50 [6] [µM] | IC50 [7] [µM] | IC50 [8] [µM] | IC50 [9] [µM] | IC50 [10] [µM] | IC50 [11] [µM] | IC50 [12] [µM]
CCn1c(-c2cccnc2[C@H](C)OC)c2c3cc(ccc31)-c1cc(O)cc(c1)C[C@H](NC(=O)C(C1CC1)C1CC1)C(=O)N1CCC[C@H](N1)C(=O)OCC(C)(C)C2 [Compound A184] | < 0.01 | 0.01 to 0.1 | 0.01 to 0.1 | – | – | – | – | – | – | – | – | – | –
CCn1c(-c2cccnc2[C@H](C)OC)c2c3cc(ccc31)-c1cc(O)cc(c1)C[C@H](NC(=O)[C@H](C(C)C)N(C)C(=O)[C@H]1CCC(C(=O)C#CCOC)C1)C(=O)N1CCC[C@H](N1)C(=O)OCC(C)(C)C2 (some centres unmarked) [Compound A266] | < 0.01 | 0.01 to 0.1 | 0.01 to 0.1 | < 5 | < 0.01 | 0.1 to 1 | < 0.01 | – | – | – | – | – | –
CCn1c(-c2cccnc2[C@H](C)OC)c2c3cc(ccc31)-c1csc(n1)C[C@H](NC(=O)[C@H](C(C)C)N(C)C(=O)N1CCCC[C@@H](N(C)C)C1)C(=O)N1CCC[C@H](N1)C(=O)OCC(C)(C)C2 [Compound A492] | 0.01 to 0.1 | 0.01 to 0.1 | 0.01 to 0.1 | < 5 | < 0.01 | – | – | 0.01 to 0.1 | 0.01 to 0.1 | – | – | – | –
C=CC(=O)N1CC[C@]2(C1)OCN([C@H](C(=O)N[C@H]1Cc3cc(cc(C(F)(F)F)c3)-c3ccc4c(c3)c(c(-c3cccnc3[C@H](C)OC)n4CC)CC(C)(C)COC(=O)[C@@H]3CCCN(N3)C1=O)C(C)C)C2=O [Compound A557] | 0.1 to 1 | – | – | < 5 | 0.1 to 1 | 1 to 10 | 0.1 to 1 | – | – | 0.01 to 0.1 | 1 to 10 | 1 to 10 | 0.1 to 1
C=CC(=O)N(C)CCN1CCN(C(=O)N(C)[C@H](C(=O)N[C@H]2CN3CCC=C(C3)c3ccc4c(c3)c(c(-c3cccnc3[C@H](C)OC)n4CC)CC(C)(C)COC(=O)[C@@H]3CCCN(N3)C2=O)C(C)C)C[C@@H]1C [Compound A570] | 0.1 to 1 | – | – | < 5 | 0.1 to 1 | 1 to 10 | 0.1 to 1 | – | – | 0.1 to 1 | 0.1 to 1 | 0.1 to 1 | 0.1 to 1
C=CC(=O)C1CC[C@H](C(=O)N(C)[C@H](C(=O)N[C@H]2Cc3cccc(c3)-c3ccc4c(c3)c(c(-c3cccnc3[C@H](C)OC)n4CC)CC(C)(C)COC(=O)[C@@H]3CCCN(N3)C2=O)C(C)(C)F)C1 (some centres unmarked) [Compound A693] | 0.1 to 1 | – | – | < 5 | 0.1 to 1 | 1 to 10 | 0.1 to 1 | – | – | 1 to 10 | 1 to 10 | 1 to 10 | 1 to 10
CCn1c(-c2cccnc2[C@H](C)OC)c2c3cc(ccc31)-c1csc(n1)C[C@H](NC(=O)[C@H](C(C)C)N(C)C(=O)C1CCN(C(=O)/C=C/CN(C)C)C3(CC3)C1)C(=O)N1CCC[C@H](N1)C(=O)OCC(C)(C)C2 (some centres unmarked) [Compound A701] | 0.01 to 0.1 | – | – | < 5 | 0.01 to 0.1 | 0.1 to 1 | 0.01 to 0.1 | – | – | 0.01 to 0.1 | 0.1 to 1 | 0.01 to 0.1 | 0.1 to 1
CCn1c(-c2cccnc2[C@H](C)OC)c2c3cc(ccc31)-c1csc(n1)C[C@H](NC(=O)[C@H](C(C)C)N(C)C(=O)C1CCN(C(=O)/C=C/CN(C)C)C[C@@H]1C)C(=O)N1CCC[C@H](N1)C(=O)OCC(C)(C)C2 (some centres unmarked) [Compound A709] | 0.01 to 0.1 | – | – | < 5 | 0.01 to 0.1 | 0.1 to 1 | 0.01 to 0.1 | – | – | 0.01 to 0.1 | 0.1 to 1 | 0.01 to 0.1 | 0.01 to 0.1
CCn1c(-c2cccnc2[C@H](C)OC)c2c3cc(ccc31)N1CCO[C@@H](C[C@H](NC(=O)[C@H](C(C)C)N(C)C(=O)[C@@]3(F)CCN(C(=O)C#CC(C)(C)N4CCC4)C3)C(=O)N3CCC[C@H](N3)C(=O)OCC(C)(C)C2)C1 [Compound A726] | < 0.01 | – | – | < 5 | < 0.01 | 1 to 10 | 0.01 to 0.1 | – | – | 1 to 10 | > 10 | > 10 | 1 to 10
